Assay results published in ChEMBL document CHEMBL6127119 (J Med Chem, 2024).
Values after ≈ are worked out from the molar mass of the structure shown.

Experiments:
Assay type in all cases: functional
Details in all cases: time 16-24 hrs
Escherichia coli = assay: Antibacterial activity against Escherichia coli AB1157 incubated for 16 to 24 hrs by CLSI based broth microdilution method
Acinetobacter baumannii = assay: Antibacterial activity against Carbapenem-resistant Acinetobacter baumannii clinical isolate incubated for 16 to 24 hrs by CLSI based broth microdilution method
Enterococcus faecium [1] = assay: Antibacterial activity against vancomycin-resistant Enterococcus faecium harboring VanB phenotype incubated for 16 to 24 hrs by CLSI based broth microdilution method
Enterococcus faecium [2] = assay: Antibacterial activity against vancomycin-resistant Enterococcus faecium harboring VanA phenotype incubated for 16 to 24 hrs by CLSI based broth microdilution method
Staphylococcus aureus [3] = assay: Antibacterial activity against vancomycin-intermediate Staphylococcus aureus incubated for 16 to 24 hrs by CLSI based broth microdilution method
Staphylococcus aureus [4] = assay: Antibacterial activity against methicillin-susceptible Staphylococcus aureus incubated for 16 to 24 hrs by CLSI based broth microdilution method
Klebsiella pneumoniae = assay: Antibacterial activity against Klebsiella pneumoniae clinical isolate incubated for 16 to 24 hrs by CLSI based broth microdilution method
Enterococcus faecium [5] = assay: Antibacterial activity against vancomycin-resistant Enterococcus faecium harboring VanM phenotype incubated for 16 to 24 hrs by CLSI based broth microdilution method

Row | Compound | MIC (Escherichia coli) [µg/mL] | MIC (Acinetobacter baumannii) [µg/mL] | MIC (Enterococcus faecium [1]) [µg/mL] | MIC (Enterococcus faecium [2]) [µg/mL] | MIC (Staphylococcus aureus [3]) [µg/mL] | MIC (Staphylococcus aureus [4]) [µg/mL] | MIC (Klebsiella pneumoniae) [µg/mL] | MIC (Enterococcus faecium [5]) [µg/mL]
1 | CN[C@H](CC(C)C)C(=O)N[C@H]1C(=O)N[C@@H](CC(N)=O)C(=O)N[C@H]2C(=O)N[C@H]3C(=O)N[C@H](C(=O)N[C@H](C(=O)O)c4cc(O)cc(O)c4-c4cc3ccc4O)[C@H](O)c3ccc(c(Cl)c3)Oc3cc2cc(c3O[C@@H]2O[C@H](CO)[C@@H](O)[C@H](O)[C@H]2O[C@H]2C[C@](C)(NCc3ccc(-c4ccc(CNC(=N)N)cc4)cc3)[C@H](O)[C@H](C)O2)Oc2ccc(cc2Cl)[C@H]1O | 64 (≈ 37.9 µM) | 64 (≈ 37.9 µM) | 4 (≈ 2.37 µM) | 4 (≈ 2.37 µM) | 2 (≈ 1.19 µM) | 0.125 (≈ 0.0741 µM) | > 128 | –
2 | CN[C@H](CC(C)C)C(=O)N[C@H]1C(=O)N[C@@H](CC(N)=O)C(=O)N[C@H]2C(=O)N[C@H]3C(=O)N[C@H](C(=O)N[C@H](C(=O)NCc4ccc(-c5ccc(CN)cc5)cc4)c4cc(O)cc(O)c4-c4cc3ccc4O)[C@H](O)c3ccc(c(Cl)c3)Oc3cc2cc(c3O[C@@H]2O[C@H](CO)[C@@H](O)[C@H](O)[C@H]2O[C@H]2C[C@](C)(N)[C@H](O)[C@H](C)O2)Oc2ccc(cc2Cl)[C@H]1O | 16 (≈ 9.74 µM) | 32 (≈ 19.5 µM) | 8 (≈ 4.87 µM) | 8 (≈ 4.87 µM) | 1 (≈ 0.608 µM) | ≤ 0.063 | > 128 | –
3 | CN[C@H](CC(C)C)C(=O)N[C@H]1C(=O)N[C@@H](CC(N)=O)C(=O)N[C@H]2C(=O)N[C@H]3C(=O)N[C@H](C(=O)N[C@H](C(=O)O)c4cc(O)cc(O)c4-c4cc3ccc4O)[C@H](O)c3ccc(c(Cl)c3)Oc3cc2cc(c3O[C@@H]2O[C@H](CO)[C@@H](O)[C@H](O)[C@H]2O[C@H]2C[C@](C)(NCc3ccc(-c4ccc(CCNC(=N)N)cc4)cc3)[C@H](O)[C@H](C)O2)Oc2ccc(cc2Cl)[C@H]1O | 64 (≈ 37.6 µM) | 64 (≈ 37.6 µM) | 4 (≈ 2.35 µM) | 8 (≈ 4.7 µM) | 2 (≈ 1.18 µM) | 0.125 (≈ 0.0735 µM) | > 128 | –
4 | CN[C@H](CC(C)C)C(=O)N[C@H]1C(=O)N[C@@H](CC(N)=O)C(=O)N[C@H]2C(=O)N[C@H]3C(=O)N[C@H](C(=O)N[C@H](C(=O)NCCc4ccc(-c5ccc(CN)cc5)cc4)c4cc(O)cc(O)c4-c4cc3ccc4O)[C@H](O)c3ccc(c(Cl)c3)Oc3cc2cc(c3O[C@@H]2O[C@H](CO)[C@@H](O)[C@H](O)[C@H]2O[C@H]2C[C@](C)(N)[C@H](O)[C@H](C)O2)Oc2ccc(cc2Cl)[C@H]1O | 16 (≈ 9.65 µM) | 32 (≈ 19.3 µM) | 8 (≈ 4.83 µM) | 8 (≈ 4.83 µM) | 1 (≈ 0.603 µM) | 0.25 (≈ 0.151 µM) | > 128 | –
5 | CN[C@H](CC(C)C)C(=O)N[C@H]1C(=O)N[C@@H](CC(N)=O)C(=O)N[C@H]2C(=O)N[C@H]3C(=O)N[C@H](C(=O)N[C@H](C(=O)O)c4cc(O)cc(O)c4-c4cc3ccc4O)[C@H](O)c3ccc(c(Cl)c3)Oc3cc2cc(c3O[C@@H]2O[C@H](CO)[C@@H](O)[C@H](O)[C@H]2O[C@H]2C[C@](C)(NCc3ccc(-c4ccc(CCN)cc4)cc3)[C@H](O)[C@H](C)O2)Oc2ccc(cc2Cl)[C@H]1O | 64 (≈ 38.6 µM) | 64 (≈ 38.6 µM) | 8 (≈ 4.82 µM) | 16 (≈ 9.65 µM) | 2 (≈ 1.21 µM) | 0.25 (≈ 0.151 µM) | > 128 | –
6 | CN[C@H](CC(C)C)C(=O)N[C@H]1C(=O)N[C@@H](CC(N)=O)C(=O)N[C@H]2C(=O)N[C@H]3C(=O)N[C@H](C(=O)N[C@H](C(=O)NCc4ccc(-c5ccc(CCN)cc5)cc4)c4cc(O)cc(O)c4-c4cc3ccc4O)[C@H](O)c3ccc(c(Cl)c3)Oc3cc2cc(c3O[C@@H]2O[C@H](CO)[C@@H](O)[C@H](O)[C@H]2O[C@H]2C[C@](C)(N)[C@H](O)[C@H](C)O2)Oc2ccc(cc2Cl)[C@H]1O | 16 (≈ 9.65 µM) | 32 (≈ 19.3 µM) | 4 (≈ 2.41 µM) | 8 (≈ 4.83 µM) | 1 (≈ 0.603 µM) | 1 (≈ 0.603 µM) | > 128 | 8 (≈ 4.83 µM)
7 | CC(C)C[C@H](C(=O)N[C@H]1C(=O)N[C@@H](CC(N)=O)C(=O)N[C@H]2C(=O)N[C@H]3C(=O)N[C@H](C(=O)N[C@H](C(=O)O)c4cc(O)cc(O)c4-c4cc3ccc4O)[C@H](O)c3ccc(c(Cl)c3)Oc3cc2cc(c3O[C@@H]2O[C@H](CO)[C@@H](O)[C@H](O)[C@H]2O[C@H]2C[C@](C)(N)[C@H](O)[C@H](C)O2)Oc2ccc(cc2Cl)[C@H]1O)N(C)Cc1ccc(-c2ccc(CCNC(=N)N)cc2)cc1 | > 128 | > 128 | 32 (≈ 18.8 µM) | 32 (≈ 18.8 µM) | 4 (≈ 2.35 µM) | 2 (≈ 1.18 µM) | > 128 | 32 (≈ 18.8 µM)
8 | CC(C)C[C@H](C(=O)N[C@H]1C(=O)N[C@@H](CC(N)=O)C(=O)N[C@H]2C(=O)N[C@H]3C(=O)N[C@H](C(=O)N[C@H](C(=O)O)c4cc(O)cc(O)c4-c4cc3ccc4O)[C@H](O)c3ccc(c(Cl)c3)Oc3cc2cc(c3O[C@@H]2O[C@H](CO)[C@@H](O)[C@H](O)[C@H]2O[C@H]2C[C@](C)(N)[C@H](O)[C@H](C)O2)Oc2ccc(cc2Cl)[C@H]1O)N(C)Cc1ccc(-c2ccc(CCN)cc2)cc1 | > 128 | > 128 | 64 (≈ 38.6 µM) | 64 (≈ 38.6 µM) | 8 (≈ 4.82 µM) | 1 (≈ 0.603 µM) | > 128 | 64 (≈ 38.6 µM)
